Columns and labels:
[1] = test system: Total ATXN3 (tATXN3) protein; experiment: Endogenous Total ATXN3 (tATXN3) Protein Assay (MSD immunoassay of cell lysates); type: cell-based; conditions: average IC50, total ATXN3 protein in cell lysate after 48 h with compound (Table 1)
Summary of the method: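 Cells in DMEM/10% FBS were plated at 10,000 per well onto 7-point, 3.16-fold compound dilutions in duplicate for 48 h at 37° C, then lysed. Total ATXN3 in lysates was measured by MSD sandwich immunoassay: mouse anti-ATXN3 capture, rabbit anti-ATXN3 detection, SULFO-TAG anti-rabbit. Average IC50 was reported in star bins.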

ATXN3 pre-mRNA = experiment: RT-qPCR Assay to Quantify Exon 4 Skipping in ATXN3 pre-mRNA in Cells; type: cell-based; conditions: percent exon 4 skipping in ATXN3 pre-mRNA, RT-qPCR of cell lysates; average IC50
Summary of the method: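 Cells plated at 10,000/well onto a 7-point, 3.16-fold DMSO dilution series (duplicates), incubated 24 h at 37 °C, then lysed. Exon 4 skipping measured by one-step RT-qPCR (48 °C RT, 40 cycles); IC50 interpolated from dose-response fit of percent skipping.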

| IC50 [1] | IC50 (ATXN3 pre-mRNA) | SMILES |
| --- | --- | --- |
| 30 to 300 nM | 30 to 300 nM | [2H]C1=C([2H])C([2H])([2H])[C@H](c2sc3c(NCc4cccs4)cc(Cl)nc3c2C)[C@@H](N)C1([2H])[2H] [Compound 261, 2-((1S,6S)-6-aminocyclohex-3-en-1-yl-2,2,3,4,5,5-d6)-5-chloro-3-methyl-N-(thiophen-2-ylmethyl)thieno[3,2-b]pyridin-7-amine] |
| 30 to 300 nM | 30 to 300 nM | N[C@H]1CCCO[C@@H]1c1c(Cl)c2nc(Cl)cc(NCc3cccs3)c2n1C(F)F [Compound 262, 2-((2S,3S)-3-aminotetrahydro-2H-pyran-2-yl)-3,5-dichloro-1-(difluoromethyl)-N-(thiophen-2-ylmethyl)-1H-pyrrolo[3,2-b]pyridin-7-amine] |
| 30 to 300 nM | 30 to 300 nM | N[C@H]1CC=CC[C@@H]1c1sc2c(NCc3ccccc3)nc(Cl)nc2c1Cl [Compound 263, 6-((1S,6S)-6-aminocyclohex-3-en-1-yl)-N-benzyl-2,7-dichlorothieno[3,2-d]pyrimidin-4-amine] |
| 30 to 300 nM | ≤ 30 nM | CN[C@H]1CCCC[C@@H]1c1sc2c(NCc3cccs3)cc(Cl)nc2c1C#CCCCO [Compound 264, 5-(5-chloro-2-((1S,2S)-2-(methylamino)cyclohexyl)-7-((thiophen-2-ylmethyl)amino)thieno[3,2-b]pyridin-3-yl)pent-4-yn-1-ol] |
| 30 to 300 nM | ≤ 30 nM | N[C@H]1COCC[C@@H]1c1sc2c(NCc3nccs3)cc(Cl)nc2c1I [Compound 265, 2-((3R,4S)-3-aminotetrahydro-2H-pyran-4-yl)-5-chloro-3-iodo-N-(thiazol-2-ylmethyl)thieno[3,2-b]pyridin-7-amine] |
| 30 to 300 nM | 30 to 300 nM | C=Cc1c([C@H]2CC=CC[C@@H]2N)sc2c(NCc3cccs3)cc(Cl)nc12 [Compound 267, 2-((1S,6S)-6-aminocyclohex-3-en-1-yl)-5-chloro-N-(thiophen-2-ylmethyl)-3-vinylthieno[3,2-b]pyridin-7-amine] |
| 30 to 300 nM | 30 to 300 nM | Cc1c([C@H]2CC=CC[C@@H]2N)sc2c(NCc3cccs3)nc(Cl)nc12 [Compound 268, 6-((1S,6S)-6-aminocyclohex-3-en-1-yl)-2-chloro-7-methyl-N-(thiophen-2-ylmethyl)thieno[3,2-d]pyrimidin-4-amine] |
| 30 to 300 nM | 30 to 300 nM | N[C@H]1CCCO[C@@H]1c1c(Br)c2nc(Cl)cc(NCc3ccco3)c2n1C(F)F [Compound 270, 2-((2S,3S)-3-aminotetrahydro-2H-pyran-2-yl)-3-bromo-5-chloro-1-(difluoromethyl)-N-(furan-2-ylmethyl)-1H-pyrrolo[3,2-b]pyridin-7-amine] |
| 30 to 300 nM | 30 to 300 nM | N[C@H]1CCCO[C@@H]1c1c(Cl)c2nc(Cl)nc(NCc3ccco3)c2n1C(F)F [Compound 271, 6-((2S,3S)-3-aminotetrahydro-2H-pyran-2-yl)-2,7-dichloro-5-(difluoromethyl)-N-(furan-2-ylmethyl)-5H-pyrrolo[3,2-d]pyrimidin-4-amine] |
| 30 to 300 nM | ≤ 30 nM | N[C@H]1CCCO[C@@H]1c1c(Cl)c2nc(Cl)cc(NCc3ccco3)c2n1C(F)F [Compound 273, 2-((2S,3S)-3-aminotetrahydro-2H-pyran-2-yl)-3,5-dichloro-1-(difluoromethyl)-N-(furan-2-ylmethyl)-1H-pyrrolo[3,2-b]pyridin-7-amine] |
| 30 to 300 nM | 30 to 300 nM | Cc1c([C@H]2CC=C(C(N)=O)C[C@@H]2N)sc2c(NCc3cccs3)cc(Cl)nc12 [Compound 274, (4S,5S)-5-amino-4-(5-chloro-3-methyl-7-((thiophen-2-ylmethyl)amino)thieno[3,2-b]pyridin-2-yl)cyclohex-1-ene-1-carboxamide] |
| 30 to 300 nM | 30 to 300 nM | N[C@H]1CC=CC[C@@H]1c1c(I)c2nc(Cl)nc(NCc3ccco3)c2n1C(F)F [Compound 276, 6-((1S,6S)-6-aminocyclohex-3-en-1-yl)-2-chloro-5-(difluoromethyl)-N-(furan-2-ylmethyl)-7-iodo-5H-pyrrolo[3,2-d]pyrimidin-4-amine] |
| 30 to 300 nM | ≤ 30 nM | CCOC(=O)C1=CC[C@H](c2sc3c(NCc4cccs4)cc(Cl)nc3c2C)[C@@H](N)C1 [Compound 277, ethyl (4S,5S)-5-amino-4-(5-chloro-3-methyl-7-((thiophen-2-ylmethyl)amino)thieno[3,2-b]pyridin-2-yl)cyclohex-1-ene-1-carboxylate] |

The remaining lines, values behind:

| SMILES | IC50 [1] | IC50 (ATXN3 pre-mRNA) |
| --- | --- | --- |
| N[C@H]1CCCC[C@@H]1c1sc2c(NCc3ccccc3)cc(Cl)nc2c1Cl [Compound 237, 2-((1S,2S)-2-aminocyclohexyl)-N-benzyl-3,5-dichlorothieno[3,2-b]pyridin-7-amine] | ≤ 30 nM | ≤ 30 nM |
| N[C@H]1COCC[C@@H]1c1sc2c(NCc3ccco3)cc(Cl)nc2c1Br [Compound 238, 2-((3R,4S)-3-aminotetrahydro-2H-pyran-4-yl)-3-bromo-5-chloro-N-(furan-2-ylmethyl)thieno[3,2-b]pyridin-7-amine] | ≤ 30 nM | 30 to 300 nM |
| N[C@H]1CC=CC[C@@H]1c1sc2c(NCc3ccncc3F)cc(Cl)nc2c1Cl [Compound 239, 2-((1S,6S)-6-aminocyclohex-3-en-1-yl)-3,5-dichloro-N-((3-fluoropyridin-4-yl)methyl)thieno[3,2-b]pyridin-7-amine] | ≤ 30 nM | ≤ 30 nM |
| N[C@H]1CC=CC[C@@H]1c1sc2c(NCc3ccccc3)nc(Cl)nc2c1Br [Compound 241, 6-((1S,6S)-6-aminocyclohex-3-en-1-yl)-N-benzyl-7-bromo-2-chlorothieno[3,2-d]pyrimidin-4-amine] | ≤ 30 nM | ≤ 30 nM |
| N#Cc1cc(NCc2ccco2)c2sc([C@H]3CC=CC[C@@H]3N)c(Cl)c2n1 [Compound 242, 2-((1S,6S)-6-aminocyclohex-3-en-1-yl)-3-chloro-7-((furan-2-ylmethyl)amino)thieno[3,2-b]pyridine-5-carbonitrile] | ≤ 30 nM | ≤ 30 nM |
| N[C@H]1CCCO[C@@H]1c1c(Cl)c2nc(Cl)nc(NCc3ccco3)c2n1C(F)F [Compound 244, 6-((2S,3S)-3-aminotetrahydro-2H-pyran-2-yl)-2,7-dichloro-5-(difluoromethyl)-N-(furan-2-ylmethyl)-5H-pyrrolo[3,2-d]pyrimidin-4-amine] | ≤ 30 nM | ≤ 30 nM |
| Cc1c([C@H]2CC=CC[C@@H]2N)sc2c(NCc3cccs3)cc(C#N)nc12 [Compound 246, 2-((1S,6S)-6-aminocyclohex-3-en-1-yl)-3-methyl-7-((thiophen-2-ylmethyl)amino)thieno[3,2-b]pyridine-5-carbonitrile] | ≤ 30 nM | 30 to 300 nM |
| Cc1c([C@H]2CC=CC[C@@H]2N)sc2c(NCc3ccsc3)cc(Cl)nc12 [Compound 247, 2-((1S,6S)-6-aminocyclohex-3-en-1-yl)-5-chloro-3-methyl-N-(thiophen-3-ylmethyl)thieno[3,2-b]pyridin-7-amine] | 30 to 300 nM | 30 to 300 nM |
| N[C@H]1CCCO[C@@H]1c1c(Br)c2nc(Cl)nc(NCc3cccs3)c2n1C(F)F [Compound 248, 6-((2S,3S)-3-aminotetrahydro-2H-pyran-2-yl)-7-bromo-2-chloro-5-(difluoromethyl)-N-(thiophen-2-ylmethyl)-5H-pyrrolo[3,2-d]pyrimidin-4-amine] | 30 to 300 nM | 30 to 300 nM |
| CC#CCNc1cc(Cl)nc2c(Br)c([C@H]3CC(C)=C(C)C[C@@H]3N)sc12 [Compound 249, 2-((1S,6S)-6-amino-3,4-dimethylcyclohex-3-en-1-yl)-3-bromo-N-(but-2-yn-1-yl)-5-chlorothieno[3,2-b]pyridin-7-amine] | 30 to 300 nM | ≤ 30 nM |
| CC#CCNc1cc(Cl)nc2c(Cl)c([C@H]3CC=CC[C@@H]3N)sc12 [Compound 250, 2-((1S,6S)-6-aminocyclohex-3-en-1-yl)-N-(but-2-yn-1-yl)-3,5-dichlorothieno[3,2-b]pyridin-7-amine] | 30 to 300 nM | 30 to 300 nM |
| N[C@H]1CCCO[C@@H]1c1sc2c(NCc3ccncc3)cc(Cl)nc2c1Br [Compound 251, 2-((2S,3S)-3-aminotetrahydro-2H-pyran-2-yl)-3-bromo-5-chloro-N-(pyridin-4-ylmethyl)thieno[3,2-b]pyridin-7-amine] | 30 to 300 nM | ≤ 30 nM |
| Cc1c([C@H]2CC=CC[C@@H]2N)sc2c(NCc3ccncc3F)nc(Cl)nc12 [Compound 253, 6-((1S,6S)-6-aminocyclohex-3-en-1-yl)-2-chloro-N-((3-fluoropyridin-4-yl)methyl)-7-methylthieno[3,2-d]pyrimidin-4-amine] | 30 to 300 nM | ≤ 30 nM |
| N[C@H]1CCCO[C@@H]1c1c(I)c2nc(Cl)nc(NCc3cccs3)c2n1C(F)F [Compound 254, 6-((2S,3S)-3-aminotetrahydro-2H-pyran-2-yl)-2-chloro-5-(difluoromethyl)-7-iodo-N-(thiophen-2-ylmethyl)-5H-pyrrolo[3,2-d]pyrimidin-4-amine] | 30 to 300 nM | 30 to 300 nM |
| Cc1c([C@H]2CC=CC[C@@H]2N)sc2c(NCc3ccccc3)cc(Cl)nc12 [Compound 258, 2-((1S,6S)-6-aminocyclohex-3-en-1-yl)-N-benzyl-5-chloro-3-methylthieno[3,2-b]pyridin-7-amine] | 30 to 300 nM | ≤ 30 nM |
| Cc1c([C@H]2COCC[C@@H]2N)sc2c(NCc3ccco3)cc(Cl)nc12 [Compound 260, 2-((3R,4S)-4-aminotetrahydro-2H-pyran-3-yl)-5-chloro-N-(furan-2-ylmethyl)-3-methylthieno[3,2-b]pyridin-7-amine] | 30 to 300 nM | ≤ 30 nM |

From patent publication US20250382305A1 (PTC THERAPEUTICS, INC., priority 2022, published 2025)
